Measurements taken from PubChem BioAssay (NCI).
Several values for one entry are separate records, joined by “and”; a condition that tells them apart may be missing. Identical values can stand only once.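 Cultured in 96-well plates, cells were exposed to test compound for 48 hours across five concentrations. GI50: concentration for 50% inhibition of growth. TGI denotes the concentration required for complete inhibition of growth.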

Columns and labels:
Assay in all cases: DTP human tumour cell line panel, 48 h
[1] = system: LOX IMVI melanoma
[2] = system: MDA-MB-231 breast
[3] = system: MDA-N
[4] = system: CAKI-1 renal
[5] = system: SR leukemia
[6] = system: TK-10 renal
[7] = system: OVCAR-3 ovarian
[8] = system: IGROV1 ovarian
[9] = system: COLO 205 colon
[10] = system: HL-60(TB) leukemia
[11] = system: NCI-H226 lung
[12] = system: SF-268 CNS
[13] = system: MDA-MB-435
[14] = system: SW-620 colon
[15] = system: EKVX NSCLC
[16] = system: HCC-2998 colon
[17] = system: BT-549 breast

Structure (SMILES) | TGI [1] [µM] | TGI [2] [µM] | TGI [3] [µM] | TGI [4] [µM] | TGI [5] [µM] | TGI [6] [µM] | TGI [7] [µM] | TGI [8] [µM] | TGI [9] [µM] | TGI [10] [µM] | TGI [11] [µM] | TGI [12] [µM] | TGI [13] | TGI [14] [µM] | TGI [15] [µM] | TGI [16] [µM] | TGI [17] [µM] | GI50 [1] [µM] | GI50 [5] [µM] | GI50 [13] [µM]
COc1cc(C2SC(C)C(=O)N2c2ccc(-c3csc(NS(=O)(=O)c4ccc(Cl)c(OC)c4)n3)cc2)ccc1O (stereo not drawn) | > 100 | > 100 | > 100 | > 100 | > 100 | > 100 | > 100 | > 100 | > 100 | 95.7 | > 100 | 84.6 | > 100 µM | > 100 | – | – | – | – | – | –
O=C1Nc2ccccc2Cn2c1cc1oc(-c3ccccc3)cc12 | > 100 | 87.2 | > 100 | > 100 | > 100 | > 100 | > 100 | > 100 | > 100 | > 100 | – | 72.3 | > 100 µM | > 100 | > 100 | > 100 | – | – | – | –
C(/Cc1ccc2c(c1)OCO2)=N\NC1=NCCN1 | > 100 | > 100 | – | – | > 100 | > 100 | > 100 | > 100 | > 100 | > 100 | > 100 | > 100 | > 100 µM | > 100 | > 100 | > 100 | > 100 | – | – | –
COc1ccc2c(c1)C/C(=C\c1cccc3ccccc13)C2=O | > 100 | – | – | > 100 | > 100 | > 100 | 50.4 | > 100 | – | > 100 | 59.7 | > 100 | – | > 100 | > 100 | > 100 | > 100 | – | – | –
Cc1nc2c(o1)C(=Nc1ccccc1)c1ccccc1C2=O | 12.1 | – | – | 36.7 | – | 69.9 | 6.21 | 40.1 | 29.7 | 66.1 | – | 24 | – | 23.2 | 27.1 | 32.9 | – | – | – | –
O=C1c2ccccc2C(=O)c2sc(Nc3ccccc3C(F)(F)F)nc21 | > 100 | 16.1 | 30.8 | 21.1 | > 100 | 35.7 | 27.5 | 34.5 | 27.8 | 17.7 | – | 30.1 | 16 µM | 24.4 | 55.1 | 35.2 | – | – | – | –
CCn1c(SC(C)C(=O)c2c(C)n(C)n(-c3ccccc3)c2=O)nc2ccccc2c1=O (stereo not drawn) | > 100 | – | – | – | > 100 | > 100 | > 100 | > 100 | > 100 | > 100 | > 100 | > 100 | – | – | > 100 | – | – | – | – | –
COc1cc(CNc2cnc3cc(N)ccc3n2)cc(OC)c1OC | > 100 | – | – | > 100 | > 100 | > 100 | 41.1 | > 100 | 62.2 | 39.8 | – | > 100 | – | > 100 | > 100 | > 100 | – | – | – | –
COc1cc(C2=NNC(=O)c3ccccc3N2c2nc(-c3cccs3)nc3ccc(Br)cc23)cc(OC)c1OC | – | > 100 | – | 73.1 | – | 89.9 | 27.8 | > 100 | > 100 | – | > 100 | 58.4 | 68.5 µM | > 100 | 86.4 | – | > 100 | – | – | –
CCOC(=O)c1c(Br)c(-c2ccc(OC)cc2)c(Br)n1C | 41.6 | > 100 | – | – | 78.3 | 94 | 67.7 | > 100 | > 100 | 14.1 | 87.5 | > 100 | 7.71 µM and 29.3 µM | 38.2 | 74.8 | – | > 100 | 17.5 | 13.3 | 4.47
COC(=O)CCc1ccc2c(c1)C(=O)CC2 | > 100 | > 100 | > 100 | – | > 100 | > 100 | > 100 | > 100 | – | > 100 | – | > 100 | > 100 µM | > 100 | > 100 | > 100 | – | – | – | –
CC1(C)O[C@@H](CCl)C[C@H](C#N)O1 | > 100 | – | – | > 100 | > 100 | > 100 | > 100 | > 100 | > 100 | > 100 | > 100 | > 100 | – | > 100 | > 100 | > 100 | – | – | – | –
COP(=O)(OC)C(NC(=O)C(F)(F)F)(c1ccccc1)C(F)(F)F (stereo not drawn) | > 100 | – | – | > 100 | > 100 | > 100 | > 100 | > 100 | > 100 | > 100 | > 100 | > 100 | – | > 100 | > 100 | > 100 | – | – | – | –
